Experimental data as given in article PMC10937556, “Phenolic phytochemistry, in vitro, in silico, in vivo, and mechanistic anti-inflammatory and antioxidant evaluations of Habenaria digitata” (Frontiers in Pharmacology, 2024).

Columns and labels:
COX-2 = molecular target: T1, COX-2 (Homo sapiens, UniProt P35354); test: Cyclooxygenase COX-2 inhibition assay; type: biochemical; conditions: for inhibition at 62.5 µg/mL: 62.50 μg/mL; for inhibition at 1000 µg/mL: 1,000 µg/mL
T1 construct: purchased Sigma-Aldrich (local distributor) C0858
T1 sequence (P35354 18-604): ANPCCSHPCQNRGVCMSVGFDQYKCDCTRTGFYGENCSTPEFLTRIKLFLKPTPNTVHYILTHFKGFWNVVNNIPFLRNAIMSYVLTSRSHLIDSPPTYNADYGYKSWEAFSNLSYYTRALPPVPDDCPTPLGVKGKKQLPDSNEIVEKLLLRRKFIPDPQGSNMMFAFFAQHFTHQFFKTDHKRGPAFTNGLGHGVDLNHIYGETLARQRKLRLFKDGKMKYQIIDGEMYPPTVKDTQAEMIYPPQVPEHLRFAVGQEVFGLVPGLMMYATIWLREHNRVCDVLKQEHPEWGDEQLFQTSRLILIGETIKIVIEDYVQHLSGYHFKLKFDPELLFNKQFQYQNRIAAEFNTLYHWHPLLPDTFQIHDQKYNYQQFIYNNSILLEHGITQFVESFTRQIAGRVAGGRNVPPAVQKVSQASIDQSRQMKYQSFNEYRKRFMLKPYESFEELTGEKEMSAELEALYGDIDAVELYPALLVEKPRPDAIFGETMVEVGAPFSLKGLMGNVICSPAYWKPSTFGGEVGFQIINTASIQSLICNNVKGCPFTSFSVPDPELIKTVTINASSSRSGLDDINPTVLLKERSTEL
Experimental: The COX-2 enzyme solution with 300 U/mL concentrations was formed. The enzyme solution (10 µL) was maintained on ice up to 10 min for activation. Moreover, this solution was added to a 50 µL co-factor solution containing 1 mM hematin, 0.9 mM glutathione, and 0.24 mM N,N,N,N-tetramethyl-p-phenylenediamine dihydrochloride (TMPD) in 0.1 M Tris HCl buffer at pH 8.0. […] Likewise, 30 mM of arachidonic acid (20 µL) was mixed for initiating the reaction and incubated for 4–5 min. Following incubation, absorbance of the samples was determined using a UV-visible spectrophotometer at 570 nm. The percentage inhibition of the COX-2 enzyme was determined through the absorbance value per unit time. Enzyme inhibition against various concentrations of investigated samples was used to calculate the IC50 values.

5-LOX = molecular target: T2, 5-LOX (Homo sapiens, UniProt P09917); test: 5-Lipoxygenase (5-LOX) inhibition assay; type: biochemical; conditions: for inhibition at 62.5 µg/mL: 62.50 μg/mL; for inhibition at 62.5 µg/mL / inhibition at 125 µg/mL / inhibition at 250 µg/mL / inhibition at 500 µg/mL / inhibition at 1000 µg/mL: read-out: % 5-LOX inhibitions; for inhibition at 1000 µg/mL: 1,000 µg/mL; for % 5-LOX inhibitions: 1,000 μg/mL
T2 construct: purchased Sigma-Aldrich (local distributor) 437996
T2 sequence (P09917 1-674): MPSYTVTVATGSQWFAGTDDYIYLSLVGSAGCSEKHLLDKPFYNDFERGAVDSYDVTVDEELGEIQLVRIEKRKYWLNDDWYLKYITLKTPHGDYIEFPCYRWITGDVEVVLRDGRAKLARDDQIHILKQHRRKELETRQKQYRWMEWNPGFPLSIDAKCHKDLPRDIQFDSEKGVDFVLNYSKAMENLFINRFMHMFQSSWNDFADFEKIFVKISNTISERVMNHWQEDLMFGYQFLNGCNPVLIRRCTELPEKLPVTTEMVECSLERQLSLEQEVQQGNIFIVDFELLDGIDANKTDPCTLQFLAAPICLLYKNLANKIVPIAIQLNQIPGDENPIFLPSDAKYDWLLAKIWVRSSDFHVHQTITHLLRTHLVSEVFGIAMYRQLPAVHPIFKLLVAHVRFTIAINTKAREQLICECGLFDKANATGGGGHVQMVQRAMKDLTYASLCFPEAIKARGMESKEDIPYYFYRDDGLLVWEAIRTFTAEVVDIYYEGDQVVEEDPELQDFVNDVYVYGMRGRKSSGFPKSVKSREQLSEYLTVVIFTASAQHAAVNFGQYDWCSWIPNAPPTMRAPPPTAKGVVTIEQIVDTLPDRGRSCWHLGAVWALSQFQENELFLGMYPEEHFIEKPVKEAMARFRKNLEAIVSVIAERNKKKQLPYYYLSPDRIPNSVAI
Experimental: The 5-LOX inhibitory experiments on H. digitata samples were carried out as per published protocol ([Pervaiz et al., 2022]). Several concentrations of plant samples were made, with concentrations ranging from 31.25 to 1,000 μg/mL. Thereafter, 5-LOX was primed with 10,000 U/mL solutions. Linoleic acid (80 mM) was used as the substrate. Likewise, 50 mM phosphate buffer with a pH of 6.3 was primed. Plant samples of varied quantities were dissolved in 250 µL of phosphate buffer, and then, 250 µL of the lipoxygenase enzyme solution was added and incubated for 5 min at room temperature. A volume of 1,000 µL of the substrate solution with a concentration of 0.6 mM was added to the enzyme solution and shaken. The absorbance at 234 nm was observed. All of the tests were conducted three times. In this test, zileuton served as a positive control. The percentage inhibition was determined using the following equation: Percentage Inhibition=Control Abs. −Sample Abs. /Control Abs. ×100.
The IC50 values were derived by plotting the inhibitions against the concentrations of the tested sample solution.

[1] = H2O2 free radical scavenging activity
Experimental: The antioxidant potential of isolated compounds was determined using this approach. In a phosphate buffer solution (50 mM, pH 7.40), a solution of H2O2 (2 mM) was produced. The crude extract (0.10 mL) was measured in a test tube and diluted to 0.40 mL using phosphate buffer. Thereafter, H2O2 (0.60 mL) was added and thoroughly mixed. […] 230 nm was used to measure the absorbance of the sample and the standard ([Sadiq et al., 2018]). For all the crude samples, the exact process was followed. According to the procedure, the inhibition percentage and IC50 values were computed.

IC50 (COX-2) | inhibition at 62.5 µg/mL (COX-2) | inhibition at 125 µg/mL (COX-2) | inhibition at 250 µg/mL (COX-2) | inhibition at 500 µg/mL (COX-2) | IC50 (5-LOX) | inhibition at 62.5 µg/mL (5-LOX) | inhibition at 125 µg/mL (5-LOX) | inhibition at 250 µg/mL (5-LOX) | inhibition at 500 µg/mL (5-LOX) | inhibition at 1000 µg/mL (5-LOX) | H2O2 IC50 [1] | % 5-LOX inhibitions (5-LOX; listed as Comp 4) | % 5-LOX inhibitions (5-LOX; listed as Comp 5) | Compound | inhibition at 1000 µg/mL (COX-2) | H2O2 % inhibition ([1]; 62.5 µg/mL) | H2O2 % inhibition ([1]; 125 µg/mL) | H2O2 % inhibition ([1]; 250 µg/mL) | H2O2 % inhibition ([1]; 500 µg/mL) | H2O2 % inhibition ([1]; 1,000 µg/mL)
101 µM | 58.12 ± 0.34% | 63.47 ± 0.49% | 68.75 ± 0.14% | 75.59 ± 0.3% | 73.9 µM | 61.35 ± 0.18% | 66.2 ± 0.15% | 73.42 ± 0.11% | 78.62 ± 0.17% | 83.53 ± 0.2% | 06 µg/mL | – | – | CC1=C(O)C(=O)C(O)CO1 (stereo not shown) [Compound 2, 3,5-dihydroxy-6-methyl-2,3-dihydro-4H-pyran-4-one] | 80.85 ± 0.18% | 67.90 ± 1.16 ^ns % | 71.34 ± 0.55 ^ns % | 75.36 ± 0.49 ^ns % | 80.39 ± 0.49 ^ns % | 86.39 ± 0.60 ^ns %
135 µM | 55.56 ± 0.52% | 64.78 ± 0.6% | 71.46 ± 0.53% | 77.68 ± 0.63% | 182 µM | 59.8 ± 0.65% | 66.7 ± 0.78% | 75.7 ± 0.62% | 80.76 ± 0.63% | 76.7 ± 0.66% | 65 µg/mL | 84.83 ± 0.62 % | – | C=Cc1ccc(O)cc1OC [Compound 4, 3-methoxy-4-vinylphenol] | 85.72 ± 0.79% | 53.90 ± 0.48 % | 57.03 ± 0.48 % | 62.90 ± 0.96 % | 65.65 ± 1.34 % | 69.58 ± 1.12 %
217 µM | 46.9 ± 0.42% | 56.4 ± 0.63% | 61 ± 0.33% | 66.2 ± 0.73% | 171 µM | 49.9 ± 0.65% | 57.2 ± 0.57% | 65.5 ± 1.04% | 71.3 ± 1.11% | 84.83 ± 0.62% | 35 µg/mL | – | 76.7 ± 0.66 % | C=Cc1cc(OC)c(O)c(OC)c1 [Compound 5, 2,6-dimethoxy-4-vinylphenol] | – | 57.51 ± 0.62 % | 62.46 ± 0.47 % | 66.68 ± 0.64 % | 70.53 ± 0.41 % | 76.42 ± 0.46 %

Compound | IC50 (COX-2) | inhibition at 62.5 µg/mL (COX-2) | inhibition at 125 µg/mL (COX-2) | inhibition at 250 µg/mL (COX-2) | inhibition at 500 µg/mL (COX-2) | IC50 (5-LOX) | inhibition at 62.5 µg/mL (5-LOX) | inhibition at 125 µg/mL (5-LOX) | inhibition at 250 µg/mL (5-LOX) | inhibition at 500 µg/mL (5-LOX) | inhibition at 1000 µg/mL (5-LOX) | H2O2 IC50 [1] | % 5-LOX inhibitions (5-LOX; listed as Comp 4) | % 5-LOX inhibitions (5-LOX; listed as Comp 5) | inhibition at 1000 µg/mL (COX-2) | H2O2 % inhibition ([1]; 62.5 µg/mL) | H2O2 % inhibition ([1]; 125 µg/mL) | H2O2 % inhibition ([1]; 250 µg/mL) | H2O2 % inhibition ([1]; 500 µg/mL) | H2O2 % inhibition ([1]; 1,000 µg/mL)
Cc1cnc(O)nc1O [Compound 1, 5-methylpyrimidine-24,4-diol] | 84.8 µM | 61.1 ± 0.7% | 66.4 ± 0.7% | 72.7 ± 0.51% | 78.83 ± 0.73% | 58.7 µM | 65.68 ± 0.64% | 71.42 ± 0.46% | 76.53 ± 0.41% | 82.45 ± 0.55% | 87.63 ± 0.64% | 05 µg/mL | – | – | 83.13 ± 0.8% | 69.91 ± 1.30 ^ns % | 71.76 ± 0.61 ^ns % | 76.87 ± 1.27 ^ns % | 81.13 ± 0.20^ns % | 85.20 ± 0.23^ns %
Cc1ccc(C(C)C)c(O)c1 [Compound 3, 2-isopropyl-5-methylphenol] | 145 µM | 53 ± 0.57% | 62.5 ± 0.44% | 66.33 ± 0.33% | 74.7 ± 1.2% | 174 µM | 51.9 ± 1.16% | 57.34 ± 0.55% | 61.36 ± 0.49% | 67.39 ± 0.49% | 73.39 ± 0.6% | 33 µg/mL | – | – | 79 ± 0.16% | 58.74 ± 0.68 % | 62.70 ± 1.25 % | 67.05 ± 0.75 % | 72.32 ± 1.06 % | 77.34 ± 0.98 %
